# What was measured:
# AGTR1 [1] = target: T1, AGTR1 (Homo sapiens, UniProt P30556); assay: DiscoveRx β-arrestin2 recruitment assay (enzyme complementation, Pathunter CHO-K1 AGTR1 β-arrestin cell line); format: cell-based; details: DiscoveRx β-arrestin2 recruitment; for DiscoveRx β-arrestin2 Ymax (%): maximal response
# T1 construct: host or cells: Pathunter CHO-K1 AGTR1 β-arrestin cell line (CHO-K1)
# T1 sequence (P30556 1-359): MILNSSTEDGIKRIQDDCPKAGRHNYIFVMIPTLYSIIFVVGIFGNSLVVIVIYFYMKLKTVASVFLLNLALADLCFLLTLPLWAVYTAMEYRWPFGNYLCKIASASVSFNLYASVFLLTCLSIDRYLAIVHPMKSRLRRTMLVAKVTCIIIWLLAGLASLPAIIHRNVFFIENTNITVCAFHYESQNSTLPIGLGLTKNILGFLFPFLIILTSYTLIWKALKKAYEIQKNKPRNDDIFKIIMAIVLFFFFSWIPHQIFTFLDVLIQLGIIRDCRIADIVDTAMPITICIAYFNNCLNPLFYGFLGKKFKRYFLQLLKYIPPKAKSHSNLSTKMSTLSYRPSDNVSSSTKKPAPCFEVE
# Outline: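 Chemiluminescent enzyme-complementation read-out of β-arrestin2 recruitment to AGTR1 in engineered CHO-K1 cells after 90 min compound exposure at 37° C. Values are 4-parameter logistic EC50s in agonist mode, IC50s in antagonist mode, with efficacy relative to the maximal All response.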
# AGTR1 [2] = target: T1, AGTR1; assay: DiscoveRx IP1 accumulation assay (HTRF), agonist mode, Pathunter CHO-K1 AGTR1 β-arrestin cell line; format: cell-based; details: for EC50: read-out: IP-1 EC50
# Outline: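 Agonist mode in CHO-K1 AGTR1 β-arrestin cells plated 14-16 h before; compounds at varying concentrations for 90 min at 37° C, IP1 accumulation read by HTRF (D2-conjugate and anti-IP1 cryptate, 20 min room temperature). EC50 from 4-parameter logistic fit; activity given as percentage of maximal AII effect.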
# hAT1R [3] = target: T2, hAT1R (Homo sapiens, UniProt P30556); assay: cell-based
# T2 sequence (P30556 1-359): T1 sequence (P30556 1-359)
# hAT1R [4] = target: T2, hAT1R; assay: cell-based; details: agonist mode; for EC50: read-out: BRET P63 EC50
# hAT1R [5] = target: T2, hAT1R; assay: BRET β-arrestin2 biosensor assay, higher receptor expression (hAT1R 5 ng/well), HEK293 cells; format: cell-based
# [6] = section of the 42nd table ending at r951, example numbering restarts after the DiscoveRx section, read-out: β-arrestin2 EC50
# [7] = Low AT1R Expression, read-out: BRET β-Arrestin2 Low AT1R Expression EC50
Compound,EC50 (AGTR1 [1]),DiscoveRx β-arrestin2 Ymax (%) (AGTR1 [1]),IP-1 Ymax (%) (AGTR1 [2]),EC50 (AGTR1 [2]),EC50 (hAT1R [3]; [6]),BRET P63 Ymax (hAT1R [4]),EC50 (hAT1R [4]),EC50 (hAT1R [3]; [7]),BRET β-Arrestin2 Low AT1R Expression Ymax (%) (hAT1R [3]; Low AT1R Expression),BRET β-Arrestin2 High AT1R Expression Ymax (%) (hAT1R [5]),EC50 (hAT1R [5]; High AT1R Expression)
"CCCCC1=NC2(CCOC2)C(=O)N1Cc1ccc(-c2cc(-c3cc(C)ccn3)ccc2-c2nnn[nH]2)cc1 (single isomer, unassigned) [Example 154]",14.1 nM,48.7%,14.4%,40.6 nM,63.9 nM,25.3%,57.7 nM,–,–,–,–
CCc1nc2c(C)cc(C)nc2n1Cc1ccc(-c2cc(-c3ccc(OC)cc3)ccc2-c2nn[nH]n2)cc1 [Example 14],10.3 nM,20.8%,8.1%,14.5 nM,–,–,> 10000 nM,> 10000 nM,–,–,–
CCc1nc2c(C)cc(C)nc2n1Cc1ccc(-c2cc(-c3cc(C)cc(C)n3)ccc2C(=O)O)cc1 [Example 194],63.2 nM,36.6%,14.5%,214 nM,295 nM,16.2%,278 nM,–,–,–,–
"CCC1=NC2(CCOC2)C(=O)N1Cc1ccc(-c2cc(-c3ccccc3)ccc2-c2nnn[nH]2)cc1 (single isomer, unassigned) [Example 168]",352 nM,34.5%,13.8%,826 nM,998 nM,–,> 10000 nM,–,–,–,–
"CCC1=NC2(CCOC2)C(=O)N1Cc1ccc(-c2cc(-c3ccccc3O)ccc2-c2nnn[nH]2)cc1 (single isomer, unassigned) [Example 167]",36 nM,78.8%,32.4%,165 nM,58.3 nM,32.0%,91.5 nM,–,–,–,–
CCc1nc2c(C)cc(C)nc2n1Cc1ccc(-c2cc(C3CCCOC3)ccc2-c2nn[nH]n2)cc1 (centres unmarked) [Example 79],286 nM,31.7%,9.4%,499 nM,–,–,> 10000 nM,464 nM,21.1%,–,–
"CCc1nc2c(C)cc(C)nc2n1Cc1ccc(-c2cc(-n3nnc4ccccc43)ccc2-c2nnn[nH]2)cc1 [Example 233, 1-(4′-((2-Ethyl-5,7-dimethyl-3H-imidazo[4,5-b]pyridin-3-yl)methyl)-6-(1H-tetrazol-5-yl)-[1,1′-biphenyl]-3-yl)-1H-benzo[d][1,2,3]triazole]",10.5 nM,59.2%,10.2%,31.3 nM,9.7 nM,17.9%,13.2 nM,–,–,–,–
"CC1=NC2(CCCC2)C(=O)N1Cc1ccc(-c2cc(-c3ccccc3)ccc2-c2nn[nH]n2)cc1 [Example 110, 3-((6′-(2H-tetrazol-5-yl)-[1,1′:3′,1″-terphenyl]-4-yl)methyl)-2-methyl-1,3-diazaspiro[4.4]non-1-en-4-one]",35.9 nM,26.9%,9.0%,108 nM,–,–,> 100000 nM,95.5 nM,22.1%,–,–
"CCc1nc2c(C)cc(C)nc2n1Cc1ccc(-c2cc(-c3ccccc3)ccc2-c2n[nH]c(=S)o2)cc1 [Example 246, 5-(4″-((2-Ethyl-5,7-dimethyl-3H-imidazo[4,5-b]pyridin-3-yl)methyl)-[1,1′:3′,1″-terphenyl]-4′-yl)-1,3,4-oxadiazole-2(3H)-thione]",234 nM,38.3%,4.8%,281 nM,916 nM,10.1%,82.6 nM,–,–,–,–
CCCCC1=NC2(CCCC2)C(=O)N1Cc1ccc(-c2cc(-c3cccc(F)c3)ccc2-c2nn[nH]n2)cc1 [Example 127],–,–,–,–,–,–,> 10000 nM,17.3 nM,29.5%,82.7%,23.6 nM
CCc1nc2c(C)cc(C)nc2n1Cc1ccc(-c2cc(Oc3cccc(F)n3)ccc2-c2nn[nH]n2)cc1 [Example 256],–,–,–,–,34.5 nM,30.5%,43 nM,–,–,–,–
CCOc1nc2cccc(C(=O)O)c2n1Cc1ccc(-c2cc(-n3cc4ccccc4n3)ccc2-c2nn[nH]n2)cc1 [Example 341],–,–,–,–,12.2 nM,18.8%,4.4 nM,–,–,–,–
CCOc1nc2cccc(C(=O)O)c2n1Cc1ccc(-c2cc(-n3cc(C(C)C)nn3)ccc2-c2nn[nH]n2)cc1 [Example 344],–,–,–,–,767 nM,10.4%,16.8 nM,–,–,–,–
CCOc1nc2cccc(C(=O)O)c2n1Cc1ccc(-c2cc(-n3ncc4ccccc43)ccc2-c2nn[nH]n2)cc1 [Example 342],–,–,–,–,3.6 nM,16.5%,3.3 nM,–,–,–,–
CCOc1nc2cccc(C(=O)O)c2n1Cc1ccc(-c2cc(N3CCC[C@@H](C)C3)ccc2-c2noc(=O)[nH]2)cc1 [Example 325],–,–,–,–,201 nM,–,> 10000 nM,–,–,–,–
CCc1nc2c(C)cc(C)nc2n1Cc1ccc(-c2cc(-n3cncc3C)ccc2-c2nnn[nH]2)cc1 [Example 220],–,–,–,–,36 nM,18.2%,36.8 nM,–,–,–,–
CCc1nc2c(C)cc(C)nc2n1Cc1ccc(-c2cc(-c3ncc(C)s3)ccc2-c2nn[nH]n2)cc1 [Example 68],–,–,–,–,–,41.7%,15 nM,15.3 nM,91.1%,–,–
"CC1=NC2(CCOC2)C(=O)N1Cc1ccc(-c2cc(-c3ccccc3)ccc2-c2nn[nH]n2)cc1 (single isomer, unassigned) [Example 174, 3-((6′-(2H-tetrazol-5-yl)-[1,1′:3′,1″-terphenyl]-4-yl)methyl)-2-methyl-7-oxa-1,3-diazaspiro[4.4]non-1-en-4-one]",–,–,–,–,634 nM,10.3%,770 nM,–,–,–,–
CCc1nc2c(C)cc(C)nc2n1Cc1ccc(-c2cc(N3CCC4(CCOC4)C3)ccc2-c2nn[nH]n2)cc1 (centres unmarked) [Example 92],–,–,51.1%,1400 nM,–,17.8%,278 nM,309 nM,66.5%,–,–
CCOc1nc2cccc(C(=O)O)c2n1Cc1ccc(-c2cc(-c3cc(OC)ccn3)ccc2-c2noc(=O)[nH]2)cc1 [Example 301],–,–,–,–,14.8 nM,31.2%,13.6 nM,–,–,–,–
CCc1nc2c(C)cc(C)nc2n1Cc1ccc(-c2cc(-n3cc(C)c(C)n3)ccc2-c2nnn[nH]2)cc1 [Example 223],–,–,–,–,9.2 nM,9.8%,5.9 nM,–,–,–,–
CCOc1nc2cccc(C(=O)O)c2n1Cc1ccc(-c2cc(-c3cnccn3)ccc2-c2noc(=O)[nH]2)cc1 [Example 307],–,–,–,–,962 nM,–,> 10000 nM,–,–,–,–
CCc1nc2c(C)cc(C)nc2n1Cc1ccc(-c2cc(-n3cnc(C)c3)ccc2-c2nnn[nH]2)cc1 [Example 221],–,–,–,–,159 nM,5.4%,28 nM,–,–,–,–

# — patent US12037324B2, “Biarylmethyl heterocycles” (Université de Montréal, priority 2016, dated 2024)
